Experimental data as given in patent US20230192700A1, “PYRAZOLOPYRAZINES ACTING ON CANCERS VIA INHIBITION OF CDK12” (Bayer Aktiengesellschaft, priority 2020, published 2023).
Where two headings read alike, the source gives them in different places.

How the values were obtained:
Format in all cases: cell-based
[1] = test system: MDA-MB-231 human breast cancer cells; assay: Proliferation assay MDA-MB-231 (crystal violet); details: MDA-MB-231 cells, 4 days, median, read-out: Prolif-MDA MB231 IC50 - [mol/l] (median)
In short: (§1)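 Cells seeded at 4,000/well in medium with 10% fetal calf serum, dosed after 24 h (0.01-10 micromol/L, 0.1% DMSO) and grown 4 days. Crystal violet staining read at 595 nm, normalised to zero-point plate (0%) and untreated cells (100%); IC50 by 4-parameter fit.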

[2] = test system: CAL-120 human breast adenocarcinoma cells; assay: Proliferation assay CAL-120 (crystal violet); details: CAL-120 cells, 4 days, median, read-out: Prolif-CAL-120— IC50 - [mol/l] (median)
In short: as §1

CYCLIN K = biological target: T1, CYCLIN K (Homo sapiens, UniProt O75909); assay: CYCLIN K nuclear protein level: immunofluorescence/high content analysis in CAL-120 cells; details: 24 h, nuclear CCNK staining intensity, median, read-out: CYCLIN K degradation IF, DC50- [mol/l] (median)
T1 construct: endogenous in cells; host or cells: CAL-120 human breast cancer cells (DSMZ ACC 459)
In short: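 CAL-120 cells were incubated with compound in dose-response for 24 h at 37° C, then fixed, immunostained for CYCLIN K and Hoechst-counterstained. Confocal imaging gave nuclear intensity. DC50 is the concentration giving 50% reduction of nuclear CCNK staining relative to DMSO and reference controls.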

T1 sequence (O75909 whole entry): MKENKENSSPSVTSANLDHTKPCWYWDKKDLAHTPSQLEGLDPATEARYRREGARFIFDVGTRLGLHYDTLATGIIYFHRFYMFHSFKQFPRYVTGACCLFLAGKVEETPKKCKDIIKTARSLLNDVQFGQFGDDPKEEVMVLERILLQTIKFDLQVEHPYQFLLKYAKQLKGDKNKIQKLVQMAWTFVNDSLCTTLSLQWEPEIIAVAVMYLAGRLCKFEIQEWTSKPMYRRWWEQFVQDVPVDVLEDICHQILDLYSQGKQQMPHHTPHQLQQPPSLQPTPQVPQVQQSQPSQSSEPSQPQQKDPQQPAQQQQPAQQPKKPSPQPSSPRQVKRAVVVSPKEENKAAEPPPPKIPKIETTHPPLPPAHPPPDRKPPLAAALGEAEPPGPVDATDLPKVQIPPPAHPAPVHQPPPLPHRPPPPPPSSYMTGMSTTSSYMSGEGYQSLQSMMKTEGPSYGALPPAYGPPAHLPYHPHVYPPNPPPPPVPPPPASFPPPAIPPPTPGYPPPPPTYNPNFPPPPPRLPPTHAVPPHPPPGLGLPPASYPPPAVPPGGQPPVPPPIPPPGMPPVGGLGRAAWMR
T1 sequence (Q9NYV4 whole entry partner): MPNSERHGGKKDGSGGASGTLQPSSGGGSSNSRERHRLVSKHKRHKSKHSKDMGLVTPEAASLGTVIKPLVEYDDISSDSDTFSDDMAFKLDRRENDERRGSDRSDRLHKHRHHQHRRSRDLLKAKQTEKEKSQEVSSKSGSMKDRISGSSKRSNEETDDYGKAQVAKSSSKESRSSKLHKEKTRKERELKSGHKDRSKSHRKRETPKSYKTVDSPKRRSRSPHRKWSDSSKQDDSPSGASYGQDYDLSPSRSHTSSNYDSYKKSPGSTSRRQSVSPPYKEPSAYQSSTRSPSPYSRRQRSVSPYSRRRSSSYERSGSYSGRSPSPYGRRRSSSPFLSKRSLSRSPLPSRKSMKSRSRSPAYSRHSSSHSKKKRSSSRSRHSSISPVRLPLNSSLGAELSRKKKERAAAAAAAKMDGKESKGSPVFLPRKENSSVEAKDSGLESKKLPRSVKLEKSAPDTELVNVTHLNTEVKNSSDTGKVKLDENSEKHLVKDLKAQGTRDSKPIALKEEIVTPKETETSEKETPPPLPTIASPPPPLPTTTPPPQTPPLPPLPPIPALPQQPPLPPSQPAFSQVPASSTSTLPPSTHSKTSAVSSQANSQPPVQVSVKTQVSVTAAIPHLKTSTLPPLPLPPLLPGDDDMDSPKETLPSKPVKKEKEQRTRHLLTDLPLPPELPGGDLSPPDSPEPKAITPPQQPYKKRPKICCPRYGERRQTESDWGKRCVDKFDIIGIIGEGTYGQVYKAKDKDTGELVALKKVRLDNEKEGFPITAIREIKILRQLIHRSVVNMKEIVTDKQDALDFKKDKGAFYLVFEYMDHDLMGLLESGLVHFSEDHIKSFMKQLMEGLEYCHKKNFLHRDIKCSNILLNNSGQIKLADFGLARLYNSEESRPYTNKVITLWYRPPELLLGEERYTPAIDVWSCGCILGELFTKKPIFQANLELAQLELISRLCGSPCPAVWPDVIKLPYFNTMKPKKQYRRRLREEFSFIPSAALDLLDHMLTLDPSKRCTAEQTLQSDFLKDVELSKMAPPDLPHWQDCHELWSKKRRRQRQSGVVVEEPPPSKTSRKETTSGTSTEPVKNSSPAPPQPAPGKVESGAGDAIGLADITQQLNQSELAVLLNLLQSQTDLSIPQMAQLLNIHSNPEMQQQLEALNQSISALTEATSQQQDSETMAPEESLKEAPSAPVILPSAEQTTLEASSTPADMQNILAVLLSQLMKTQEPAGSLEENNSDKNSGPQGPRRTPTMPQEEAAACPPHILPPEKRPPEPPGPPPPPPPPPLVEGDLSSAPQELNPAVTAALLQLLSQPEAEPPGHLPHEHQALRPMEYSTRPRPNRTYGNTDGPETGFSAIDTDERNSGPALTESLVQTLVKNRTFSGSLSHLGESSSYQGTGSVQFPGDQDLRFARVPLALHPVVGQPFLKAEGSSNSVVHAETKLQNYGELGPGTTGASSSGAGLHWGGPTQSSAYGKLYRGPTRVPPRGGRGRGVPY

Structure (SMILES) | IC50 ([1]; Homo sapiens, MDA-MB-231, 96 h) [nM] | IC50 ([2]; Homo sapiens, CAL-120, 96 h) [nM] | DC50 (CYCLIN K) [nM] | IC50 [1] [nM] | IC50 [2] [nM]
OC1(Cn2nc(NCc3nc4ccccc4[nH]3)c3ncc(C4CC4)nc32)CCC1 [Example 72, 1-[(3-{[(1H-benzimidazol-2-yl)methyl]amino}-6-cyclopropyl-1H-pyrazolo[3,4-b]pyrazin-1-yl)methyl]cyclobutan-1-ol] | 109 | 60.6 | 23.4 |  | 
c1ccc2[nH]c(CNc3nn(C4CCCC4)c4nc(C5CC5)cnc34)nc2c1 [Example 39, N-[(1H-benzimidazol-2-yl)methyl]-1-cyclopentyl-6-cyclopropyl-1H-pyrazolo[3,4-b]pyrazin-3-amine] | 315 | 88.8 | 38.7 |  | 
c1ccc2[nH]c(CNc3nn(C4CCOC4)c4nc(C5CC5)cnc34)nc2c1 (racemic) [Example 10, (±)-N-[(1H-benzimidazol-2-yl)methyl]-6-cyclopropyl-1-[oxolan-3-yl]-1H-pyrazolo[3,4-b]pyrazin-3-amine] | 151 | 65.7 | 159 |  | 
c1ccc2[nH]c(CNc3nn(C4CCOCC4)c4nc(C5CC5)cnc34)nc2c1 [Example 16, N-[(1H-benzimidazol-2-yl)methyl]-6-cyclopropyl-1-(oxan-4-yl)-1H-pyrazolo[3,4-b]pyrazin-3-amine] | 70.2 | 103 | > 677 |  | 
c1ccc2[nH]c(CNc3nn(C4CCC4)c4nc(C5CC5)cnc34)nc2c1 [Example 49, N-[(1H-benzimidazol-2-yl)methyl]-1-cyclobutyl-6-cyclopropyl-1H-pyrazolo[3,4-b]pyrazin-3-amine] | 200 | 122 | 25.7 |  | 

Compounds with a lower DC50 (CYCLIN K), results first:

IC50 ([1]; Homo sapiens, MDA-MB-231, 96 h) [nM] | IC50 ([2]; Homo sapiens, CAL-120, 96 h) [nM] | DC50 (CYCLIN K) [nM] | IC50 [1] [nM] | IC50 [2] [nM] | Structure (SMILES)
645 | 266 | 20.7 |  |  | CN(C)CCn1nc(NCc2nc3ccccc3[nH]2)c2ncc(C3CC3)nc21 [Example 68, N-[(1H-benzimidazol-2-yl)methyl]-6-cyclopropyl-1-[2-(dimethylamino)ethyl]-1H-pyrazolo[3,4-b]pyrazin-3-amine]
148 | 84.5 | 17.2 |  |  | CC1COCCC1n1nc(NCc2nc3ccccc3[nH]2)c2ncc(C3CC3)nc21 (racemic) [Example 42, (±)-cis/trans-N-[(1H-benzimidazol-2-yl)methyl]-6-cyclopropyl-1-(3-methyloxan-4-yl)-1H-pyrazolo[3,4-b]pyrazin-3-amine]
 |  | 1.72 | 15.1 | 4.14 | CN1CCCC(n2nc(NCc3nc4ccccc4[nH]3)c3ncc(C4CC4)nc32)CC1 (single isomer, unassigned) [Example 37, (+) or (−)-N-[(1H-benzimidazol-2-yl)methyl]-6-cyclopropyl-1-[(4R*)-1-methylazepan-4-yl]-1H-pyrazolo[3,4-b]pyrazin-3-amine]
51.3 | 16.3 | 0.914 |  |  | CN1CCC(n2nc(NCc3nc4cc(F)ccc4[nH]3)c3ncc(C4CC4)nc32)CC1 [Example 4, 6-cyclopropyl-N-[(5-fluoro-1H-benzimidazol-2-yl)methyl]-1-(1-methylpiperidin-4-yl)-1H-pyrazolo[3,4-b]pyrazin-3-amine]
